ChEMBL document CHEMBL2321784, “Discovery of 5-benzyl-3-phenyl-4,5-dihydroisoxazoles and 5-benzyl-3-phenyl-1,4,2-dioxazoles as potent firefly luciferase inhibitors” (J Med Chem, 2013)
The source made the active and inactive calls. The rule behind the calls is not given here.

Tests used:
[1] = molecular target: T1, Coelenterazine h 2-monooxygenase (Renilla reniformis) (UniProt P27652); experiment: Inhibition of sea pansy luciferase after 20 mins by luminescence assay
T1 sequence (whole entry): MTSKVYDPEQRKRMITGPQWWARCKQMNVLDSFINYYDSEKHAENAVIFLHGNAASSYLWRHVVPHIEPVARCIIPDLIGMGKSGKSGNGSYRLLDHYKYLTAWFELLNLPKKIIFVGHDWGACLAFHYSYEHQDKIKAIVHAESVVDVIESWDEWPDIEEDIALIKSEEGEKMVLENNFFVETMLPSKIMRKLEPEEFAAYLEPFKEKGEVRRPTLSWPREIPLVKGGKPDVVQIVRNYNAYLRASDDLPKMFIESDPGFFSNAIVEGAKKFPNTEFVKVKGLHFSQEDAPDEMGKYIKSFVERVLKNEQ

[2] = Cytotoxicity against human U87 cells assessed as cell viability at 10 uM after 6 hrs by propidium iodide staining-based fluorescence assay; settings: u-87mg atcc
[3] = molecular target: Luciferin 4-monooxygenase (Photinus pyralis) (UniProt P08659); experiment: Inhibition of recombinant firefly luciferase activity expressed in U87 cells at 10 uM after 48 hrs; type: cell-based; settings: U-87MG ATCC
Luciferin 4-monooxygenase (Photinus pyralis), sequence (P08659 whole entry): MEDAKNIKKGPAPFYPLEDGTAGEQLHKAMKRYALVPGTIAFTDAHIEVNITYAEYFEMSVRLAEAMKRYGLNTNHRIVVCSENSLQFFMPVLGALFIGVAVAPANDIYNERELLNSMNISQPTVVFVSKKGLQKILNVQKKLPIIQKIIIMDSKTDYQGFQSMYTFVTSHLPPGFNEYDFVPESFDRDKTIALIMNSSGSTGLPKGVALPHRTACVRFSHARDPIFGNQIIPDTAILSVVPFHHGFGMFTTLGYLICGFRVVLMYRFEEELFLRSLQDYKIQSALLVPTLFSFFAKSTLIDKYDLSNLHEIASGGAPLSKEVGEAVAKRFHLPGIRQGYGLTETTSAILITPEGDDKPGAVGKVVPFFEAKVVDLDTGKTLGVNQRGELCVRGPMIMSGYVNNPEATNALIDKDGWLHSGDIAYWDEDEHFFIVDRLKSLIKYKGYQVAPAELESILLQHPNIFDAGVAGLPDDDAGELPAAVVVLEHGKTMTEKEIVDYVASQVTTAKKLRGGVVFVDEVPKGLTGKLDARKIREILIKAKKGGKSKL

[4] = molecular target: Luciferin 4-monooxygenase (Photinus pyralis) (UniProt P08659); experiment: Inhibition of recombinant firefly luciferase activity expressed in U87 cells at 10 uM after 2 mins; type: cell-based; settings: U-87MG ATCC
[5] = molecular target: Luciferin 4-monooxygenase (Photinus pyralis) (UniProt P08659); experiment: Reversible inhibition of recombinant firefly luciferase incubated for 30 mins measured post compound wash-out by luminescence assay
[6] = molecular target: Luciferin 4-monooxygenase (Photinus pyralis) (UniProt P08659); experiment: Noncompetitive inhibition of recombinant firefly luciferase using luciferin as substrate at 1 to 100 nM after 30 min by Michaelis-Menten plot analysis
[7] = molecular target: Luciferin 4-monooxygenase (Photinus pyralis) (UniProt P08659); experiment: Noncompetitive inhibition of recombinant firefly luciferase using ATP as substrate at 1 to 100 nM after 30 mins by Michaelis-Menten plot analysis
[8] = molecular target: Luciferin 4-monooxygenase (Photinus pyralis) (UniProt P08659); experiment: Inhibition of recombinant firefly luciferase at 10 uM after 20 mins by luminescence assay
[9] = molecular target: Luciferin 4-monooxygenase (Photinus pyralis) (UniProt P08659); experiment: Inhibition of recombinant firefly luciferase at 1 nM after 20 mins by luminescence assay
[10] = molecular target: Luciferin 4-monooxygenase (Photinus pyralis, UniProt P08659); experiment: Inhibition of recombinant firefly luciferase after 20 mins by luminescence assay
Luciferin 4-monooxygenase, sequence (P08659 whole entry): as above

[11] = molecular target: Luciferin 4-monooxygenase (Photinus pyralis) (UniProt P08659); experiment: Noncovalent inhibition of recombinant firefly luciferase assessed as inhibition of enzyme-compound adduct formation at 10 uM after 5 mins by SDS-PAGE based liquid scintillation counting analysis; settings: tested as the 14C-labelled form

Row | Compound | inhibition [8] | inhibition [9] | IC50 [10] | also measured
1 | COc1ccc(C2=NO[C@H](Cc3ccccc3)C2)cc1 | 99.8% | 70.9% | 0.288 nM | inhibition [3]: Active; inhibition [4]: Active; inhibition [6]: Active; inhibition [7]: Active
2 | N#Cc1ccc(C2=NOC(Cc3ccccc3)C2)cc1 (racemic) | – | – | – | inhibition [11]: Active
3 | CCc1ccc(C[C@@H]2CC(c3ccc(Cl)cc3)=NO2)cc1 | 29.4% | 6.3% | – | pIC50 [10]: > 5
4 | Clc1ccc(C2=NO[C@H](Cc3cccc4ccccc34)C2)cc1 | 40.9% | 2% | – | pIC50 [10]: > 5
5 | COc1ccc(C2=NO[C@H](Cc3ccc(F)cc3)C2)cc1 | 100% | 26.7% | 10.5 nM | –

Now from value to molecule, other results behind:

Row | inhibition [8] | inhibition [9] | IC50 [10] | Compound | also measured
6 | 99.8% | 72.8% | 0.257 nM | Clc1ccc(C2=NO[C@H](Cc3ccccc3)C2)cc1 | inhibition [1]: inactive; Activity [2]: Non-toxic; inhibition [3]: Active; inhibition [4]: Active; inhibition [5]: Active; inhibition [6]: Active; inhibition [7]: Active
7 | 98% | 38.8% | 2.82 nM | Fc1ccccc1C1=NOC(Cc2ccccc2)O1 (racemic) | –
8 | 75.3% | 9.6% | 1950 nM | COc1cccc(C2=NO[C@@H](Cc3ccccc3)C2)c1 | –
9 | 99.4% | 51.7% | 0.912 nM | COc1ccccc1C1=NO[C@H](Cc2ccccc2)C1 | –
10 | 85.6% | 7.7% | 741 nM | Fc1ccc(C2=NO[C@@H](Cc3ccccc3)C2)cc1 | –
11 | 99.5% | 47.1% | 1.58 nM | c1ccc(C[C@@H]2CC(c3ccccc3)=NO2)cc1 | –
